Source: patent US20250027041A1, “COMPOSITION FOR INDUCING TRANSDIFFERENTIATION AND STEM CELLS TREATED THEREWITH” (YJ CERAPEUTICS INC., priority 2021, published 2025)

Key:
human UCB-MSCs = experiment: Tuj1 immunochemical assay with CtBP inhibitors; format: cell-based; settings: 30 μM, 5 days
Protocol: To determine CtBP1-mediated ciNSC5 differentiation by YJ102 in human UCB-MSCs, a CTBP1 mechanism by treatment with NSC95397 or 4-methylthio-2-oxobutanoate (MTOB) was analyzed by immunochemical assay. Specifically, UCB-MSCs were dispensed at 2.1×10^4 cells/well in a 12-well plate containing an 18 mm cover glass (circular) (a DMSO control group was dispensed at 3.5×10^3 cells/well). […] The culture medium was removed, washed with PBS, and fixed with 4% paraformaldehyde at room temperature for 10 minutes. After washed three times with PBS, the cells were permeabilized with PBS-T containing 0.5% Triton X-100 for 10 minutes, washed with PBS-T three times for 10 minutes each, and then blocked with a blocking solution (PBS-T containing 5% BSA and 5% goat serum) for 1 hour. Thereafter, the cells were treated with anti-Tuj1 antibody (Cat. 801201, BioLegend) diluted 1/5000 in a blocking solution and incubated at 4° C. overnight. The next day, the cells were washed 10 times for 10 minutes each with PBS-T, and then treated with anti-mouse IgG-cy3 (Cat. 111-165-003, Jackson ImmunoResearch) diluted 1/2000 in a blocking solution, and incubated for 1 hour in dark conditions. Next, the cells were washed 10 times for 10 minutes each with PBS-T, mounted with a mounting solution containing DAPI, and then observed with a confocal microscope.

AD-MSC = experiment: Tuj1 immunochemical assay, AD-MSC; format: cell-based, human; settings: 10, 20 or 30 μM, 5 days
Protocol: (§1) To determine whether transdifferentiation into ciNSC5, neural progenitor cells, occurred similarly even in MSCs of different origins when human UCB-MSCs were treated with YJ101, YJ102, or YJ103 for 5 days, the expression of neuronal markers in differentiated ciNSC5 was confirmed by immunochemical assay using MSCs from human adipose-derived mesenchymal stem cells (AD-MSCs), human bone marrow-derived mesenchymal stem cells ([…]) and human umbilical cord blood-derived mesenchymal stem cells (UCB-MSCs; Promo Cells). Specifically, AD-MSC (StemPro™ Human Adipose-Derived Stem Cell, Gibco, Passage #6) was incubated in a MesenPRO RS™ medium, BM-MSC (ATCC, Passage #6) was incubated in a Mesenchymal Stem Cell Basal Medium for Adipose, Umbilical and Bone Marrow-derived MSC (Cat. PCS-500-030, ATCC) medium, and UCB-MSC (Promo Cell, Passage #6) was incubated in a CellCor™ CD MSC (Cat. YSP001, Xell Therapeutics) medium, and then dispensed at 2.1×10^4 cells/well in a 12-well plate with an 18 mm cover glass (circular) (DMSO control group was dispensed at 3.5×10^3 cells/well). […] The culture medium was removed, washed with PBS, and then fixed with 4% paraformaldehyde at room temperature for 10 minutes. After washed three times with PBS, the cells were permeabilized with PBS-T containing 0.5% Triton X-100 for 10 minutes, washed with PBS-T three times for 10 minutes each, and then blocked with a blocking solution (PBS-T containing 5% BSA and 5% goat serum) for 1 hour. Thereafter, the cells were treated with anti-Tuj1 antibody (Cat. 801201, BioLegend) diluted 1/5000 in a blocking solution and incubated at 4° C. overnight. The next day, the cells were washed 10 times for 10 minutes each with PBS-T, and then treated with anti-mouse IgG-cy3 diluted 1/2000 in a blocking solution, and incubated for 1 hour in dark conditions. Next, the cells were washed 10 times for 10 minutes each with PBS-T, mounted with a mounting solution containing DAPI, and then observed with a confocal microscope.

UCB-MSC (Promo Cell) = experiment: Tuj1 immunochemical assay, UCB-MSC (Promo Cell); format: cell-based, human; settings: 10, 20 or 30 μM, 5 days
Protocol: as §1

CtBP1 = CtBP1 (Homo sapiens, UniProt Q13363); experiment: DARTS assay, CtBP1; format: binding; parameters: expressed in transfected cells; host or cells: human UCB-MSC (Kang Stem Cell), lysate
Protocol: To identify proteins binding to compounds of the present invention, YJ101 (Chemical Formula 1), YJ102 (Chemical Formula 2), and YJ103 (Chemical Formula 3), in human umbilical cord blood-derived mesenchymal stem cells (UCB-MSCs), DART assay was performed. Specifically, UCB-MSCs (Kang Stem Cell, Passage #6) were dispensed into a 100 mm culture dish and incubated in a KSB-3 medium (Cat. K3901, Kang Stem Cell) containing 10% FBS (Cat. 16000044), and then collected and washed with PBS. Thereafter, the cells were added with an IP50 lysis buffer [50 mM Tris-HCl (pH 7.4), 150 mM NaCl, 2 mM MgCl2, and 0.1% NP40], sonicated, and centrifuged at 13,000×g for 10 minutes at 4° C. to obtain the supernatant. The supernatant was added with 1/10 volume of 10×TNC buffer [500 mM Tris-HCl (pH 8.0), 500 mM NaCl, and 100 mM CaCl2)], and protein concentration was measured using a Bradford method. Thereafter, 9 μl of a cell lysate and 1 μl of YJ101 (20 or M), YJ102 (20 or 30 μM), or YJ103 (20 or 40 μM) were mixed in a microcentrifuge tube and incubated at room temperature for 1 hour. A control group was treated with 1 μl of DMSO. After incubation, 1 μl (1 mg/ml) of Pronase (Cat. 10 165 921 001, Roche) diluted to 1 mg/ml using a 1×TNC buffer was added to the microcentrifuge tube and incubated at 37° C. for 15 minutes. After incubation, ⅕ volume of a 5×SDS-PAGE loading buffer was added, heated at 100° C. for 5 minutes, and then SDS-PAGE and Coomassie blue staining were performed. In addition, UCB-MSCs were dispensed at 4×10^5 cells/ml in a 60 mm culture dish, and after 24 hours, 4 μg of FLAG-CtBP1 or FLAG-CtBP2 DNA was transfected using 4 μl of jetPRIME. After 48 hours, the cells were collected, and proteins were extracted and quantified using the same method as above. DARTS assay was performed with the cell lysate of CtBP1 and Y102 labeled with FLAG, and Western blot assay was performed with a flag antibody (Cat. F3165, Sigma).

overexpressed CtBP1 (flag-CtBP1) protection from degradation by pronase (DARTS) (CtBP1; FLAG-CtBP1 transfected UCB-MSC lysate, YJ101 (20 or M), YJ102 (20 or 30 μM), YJ103 (20 or 40 μM)): protected | CtBP1 protection from degradation by pronase (DARTS) (CtBP1; endogenous CtBP1, UCB-MSC lysate, YJ102 20 or 30 μM): protected | binding to CtBP1 (CtBP1; human UCB-MSC): bound to CtBP1
SMILES: CCc1ccc(N(C(=O)COC)c2nc3cc(Cl)ccc3o2)cc1 [YJ102]
differentiation of UCB-MSCs into ciNSC5 through CtBP1 regulation (human UCB-MSCs): differentiated UCB-MSCs into ciNSC5 | expression of Tuj1 (AD-MSC): increased | expression of Tuj1 (UCB-MSC (Promo Cell)): increased
